Experimental data taken from the supplement of paper PMC11061612.

Columns and labels:
Assay in all cases: Bliss excess, mean over the matrix (fraction); higher = more synergy
[1] = system: U-118-MG (Low Grade Glioma)
Method in brief: (§1)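 After 24 hours at 37°C and 5% CO2 in 1536-well plates, cells in DMEM/F12 or RPMI plus 10% FBS received two-drug dose matrices for 72 hours. Viability came from CellTiter-Glo 2.0 luminescence and was scaled as inhibition, anchored at 0 by vehicle wells and at 1 by blank wells. Combination Emax is taken as the second-highest inhibition in the matrix, and Bliss excess as the observed combination effect less EA + EB − EA·EB, with EA and EB the single-agent effects.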

[2] = system: MCF7 (Breast Carcinoma)
Method in brief: as §1

[3] = system: HuO9 (Osteosarcoma)
Method in brief: as §1

[4] = system: HCC1143 (Breast Carcinoma)
Method in brief: as §1

[5] = system: SKN-3 (Head and Neck Carcinoma)
Method in brief: as §1

[6] = system: H4 (Low Grade Glioma)
Method in brief: as §1

[7] = system: A172 (Glioblastoma)
Method in brief: as §1

[8] = system: HCC38 (Breast Carcinoma)
Method in brief: as §1

[9] = system: WSU-DLCL2 (B-Cell Non-Hodgkin's Lymphoma)
Method in brief: as §1

[10] = system: HCT-116 (Colorectal Carcinoma)
Method in brief: as §1

[11] = system: D-283MED (Other Solid Carcinomas)
Method in brief: as §1

[12] = system: MSTO-211H (Mesothelioma)
Method in brief: as §1

[13] = system: SNU-61 (Colorectal Carcinoma)
Method in brief: as §1

[14] = system: DOK (Oral Cavity Carcinoma)
Method in brief: as §1

[15] = system: HLE (Hepatocellular Carcinoma)
Method in brief: as §1

[16] = system: MES-SA (Other Solid Carcinomas)
Method in brief: as §1

[17] = system: 647-V (Bladder Carcinoma)
Method in brief: as §1

[18] = system: CAL-39 (Other Solid Carcinomas)
Method in brief: as §1

[19] = system: HOP-92 (Non-Small Cell Lung Carcinoma)
Method in brief: as §1

[20] = system: SW48 (Colorectal Carcinoma)
Method in brief: as §1

SMILES	Bliss excess [1]	Bliss excess [2]	Bliss excess [3]	Bliss excess [4]	Bliss excess [5]	Bliss excess [6]	Bliss excess [7]	Bliss excess [8]	Bliss excess [9]	Bliss excess [10]	Bliss excess [11]	Bliss excess [12]	Bliss excess [13]	Bliss excess [14]	Bliss excess [15]	Bliss excess [16]	Bliss excess [17]	Bliss excess [18]	Bliss excess [19]	Bliss excess [20]
Cn1cnc2c(F)c(Nc3ccc(Br)cc3Cl)c(C(=O)NOCCO)cc21 [Selumetinib] + CCN(CCO)CCCOc1ccc2c(Nc3cc(CC(=O)Nc4cccc(F)c4)[nH]n3)ncnc2c1 [AZD2811] (first compound max 10 µM, 7x7, partner max 1 µM)	-0.027	-0.0309	-0.0201	0.0298	-0.0166	-0.0091	-0.0731	-0.0748	-0.0019	0.0289	-0.0022	-0.0137	-0.0026	-0.0864	-0.0029	-0.0248	-0.0038	-0.0688	-0.0193	-0.0168
CC(=O)c1c(C)c2cnc(Nc3ccc(N4CCNCC4)cn3)nc2n(C2CCCC2)c1=O [Palbociclib] + Cc1c2c(nn1C)CSCc1cc(n(C)n1)CSc1cc(c3ccccc3c1)OCCCc1c(C(=O)O)n(C)c3c-2c(Cl)ccc13 [AZD5991] (first compound max 10 µM, 7x7, partner max 1 µM)	-0.0201	-0.103	0.0088	0.0011	-0.0428	-0.0371	-0.0589	-0.0244	-0.0052	-0.0075	0.0099	-0.0265	-0.0371	-0.0363	-0.0339	-0.05	-0.0442	0.0054	0.013	0.0255
C=CCn1c(=O)c2cnc(Nc3ccc(N4CCN(C)CC4)cc3)nc2n1-c1cccc(C(C)(C)O)n1 [AZD1775] + O=C(c1cc(Cc2n[nH]c(=O)c3ccccc23)ccc1F)N1CCN(C(=O)C2CC2)CC1 [Olaparib] (first compound max 1 µM, partner max 10 µM)	-0.0766	0.003	0.0102	-0.0675	-0.0512	-0.12	-0.0226	-0.068	-0.0184	-0.0239	0.0079	-0.0203	-0.0289	-0.0236	-0.0567	-0.0694	0.0046	-0.0223	-0.0181	-0.0398
CC1(C)CCC(CN2CCN(c3ccc(C(=O)NS(=O)(=O)c4ccc(NCC5CCOCC5)c([N+](=O)[O-])c4)c(Oc4cnc5[nH]ccc5c4)c3)CC2)=C(c2ccc(Cl)cc2)C1 [Venetoclax] + C[C@@H](Nc1cc(F)cc(F)c1)c1cc(C(=O)N(C)C)cc2c(=O)cc(N3CCOCC3)oc12 [AZD8186] (first compound max 1 µM, 7x7, partner max 3 µM)	-0.0383	-0.0499	0.0776	-0.0141	-0.0192	-0.0302	-0.0414	-0.0075	0.0951	-0.0421	-0.0149	-0.0052	-0.0314	-0.0548	-0.0364	-0.0299	-0.0019	-0.106	-0.0212	-0.0278
CC1(C)CCC(CN2CCN(c3ccc(C(=O)NS(=O)(=O)c4ccc(NCC5CCOCC5)c([N+](=O)[O-])c4)c(Oc4cnc5[nH]ccc5c4)c3)CC2)=C(c2ccc(Cl)cc2)C1 [Venetoclax] + C=CCn1c(=O)c2cnc(Nc3ccc(N4CCN(C)CC4)cc3)nc2n1-c1cccc(C(C)(C)O)n1 [AZD1775] (first compound max 1 µM, partner max 1 µM)	-0.0704	-0.0227	0.0227	-0.0192	-0.0949	0.0732	-0.0833	0.0136	0.0465	-0.0765	0.0257	-0.0183	-0.0321	-0.0582	-0.0648	-0.0606	-0.0274	-0.0308	0.0046	0.0294
Cn1cnc2c(F)c(Nc3ccc(Br)cc3Cl)c(C(=O)NOCCO)cc21 [Selumetinib] + C[C@@H]1COCCN1C2=NC(=NC(=C2)C3(CC3)[S@](=N)(=O)C)C4=C5C=CNC5=NC=C4 [AZD6738] (first compound max 10 µM, 7x7, partner max 10 µM)	0.0263	-0.0558	0.0042	-0.0207	0.0257	-0.0067	-0.0564	-0.0706	-0.0228	-0.0093	-0.0564	-0.0453	0.065	0.0628	-0.0665	0.0021	0.0218	-0.0152	-0.0029	-0.017
C[C@@H](c1ccc2nccn2c1)n1nnc2ncc(-c3cnn(C)c3)nc21 [Savolitinib] + Cc1c2c(nn1C)CSCc1cc(n(C)n1)CSc1cc(c3ccccc3c1)OCCCc1c(C(=O)O)n(C)c3c-2c(Cl)ccc13 [AZD5991] (first compound max 1 µM, 7x7, partner max 1 µM)	0.0095	-0.0242	-0.0416	0.0108	-0.0758	0.0076	-0.0747	-0.0279	0.0276	-0.0593	0.0649	-0.0337	-0.0429	-0.0681	-0.0053	-0.0465	-0.0594	-0.0722	-0.0338	-0.0232
Cc1c2c(nn1C)CSCc1cc(n(C)n1)CSc1cc(c3ccccc3c1)OCCCc1c(C(=O)O)n(C)c3c-2c(Cl)ccc13 [AZD5991] + CN(C)CCCOc1ccc(-c2ccc3ncc4c(c3c2)n(C2CCOCC2)c(=O)n4C)cn1 [AZD0156] (first compound max 1 µM, 7x7, partner max 1 µM)	-0.0035	-0.0063	-0.0171	-0.0287	-0.0173	0.0376	-0.0019	-0.0182	-0.0033	0.0431	0.0096	-0.0129	-0.0047	-0.0121	0.0424	0.017	0.015	-0.0786	-0.044	0.0051
NC1(C(=O)N[C@@H](CCO)c2ccc(Cl)cc2)CCN(c2ncnc3[nH]ccc23)CC1 [Capivasertib] + CCN(CCO)CCCOc1ccc2c(Nc3cc(CC(=O)Nc4cccc(F)c4)[nH]n3)ncnc2c1 [AZD2811] (first compound max 10 µM, 7x7, partner max 1 µM)	-0.0475	0.0943	0.0135	0.0137	-0.0524	-0.0124	-0.0079	0.0054	0.0415	0.0513	0.0666	-0.0073	-0.0435	-0.0355	0.0121	0.0165	-0.0332	-0.051	-0.0285	0.0146
COc1nnc2ccc(N3CCC(c4ccc(OCCN5CCN(C)C(=O)[C@H]5C)cc4)CC3)nn12 [AZD5153] + CCN(CCO)CCCOc1ccc2c(Nc3cc(CC(=O)Nc4cccc(F)c4)[nH]n3)ncnc2c1 [AZD2811] (first compound max 1 µM, 7x7, partner max 1 µM)	-0.0317	-0.0721	-0.0983	-0.0474	-0.0436	-0.0269	-0.0466	-0.0398	-0.019	-0.0384	0.001	-0.0182	-0.0074	-0.0906	-0.0177	-0.0028	0.0236	-0.0508	-0.079	-0.0821
CC(=O)Nc1cccc(-n2c(=O)n(C3CC3)c(=O)c3c(Nc4ccc(I)cc4F)n(C)c(=O)c(C)c32)c1 [Trametinib] + Cc1nc(-c2cn3c(n2)-c2ccc(-c4cnn(C(C)(C)C(N)=O)c4)cc2OCC3)n(C(C)C)n1 [Taselisib] (first compound max 1 µM, 7x7, partner max 10 µM)	-0.0083	0.0979	0.0587	0.0615	0.11	0.132	0.0645	0.0219	0.0464	0.124	0.119	0.122	0.0995	0.0767	-0.0291	0.062	0.106	0.0657	0.14	0.178
